The values below are quoted from earlier work in patent US6582919B2, “Method of determining epidermal growth factor receptor and HER2-neu gene expression and correlation of levels thereof with survival rates” (Response Genetics, Inc., priority 2001, dated 2003).

The test system of data set [1] is tumors not expressing EGFR. Particulars: Toi et al. 1990.
Data set [2] has as its system EGFR expressing human mammary carcinoma cells. Particulars: cells injected into athymic nude mice (Toi et al. 1990).

The structures appear in SMILES notation.

As to `O=CN/C=C/c1cc(O)ccc1O` [erbstatin], the “growth of tumors not expressing EGFR” value in data set [1] is listed as “no effect”. In addition, the “growth of EGFR expressing human mammary carcinoma cells” value in data set [2] is reported as “reduced the growth”.
